The structures appear in SMILES notation.

For one experiment, the system named is WM3629 cells. Nature of the experiment: WM3629 cell proliferation assay (1), resazurin, 96-well. Type of experiment: cell-based. Conditions: inhibition of cell proliferation. The protocol: WM3629 Cell Proliferation Assay (1)
WM3629 cells (#WM3629-01-0001) are obtained from Rockland Immunochemicals Inc (Gilbertsville, PA). Briefly, cells were grown in MCDB 153 medium (Sigma, #M7403, St. Louis, MO) supplemented with 20% Leibovitz's L-15 (ThermoFisher #11415-064, Waltham, MA), 2% heat inactivated fetal bovine serum (ThermoFisher, #A3840001, Waltham, MA), 5 μg/mL Insulin (Bovine Pancreas) (Sigma, #I0516, St. Louis, MO), 1.68 mM Calcium Chloride (Sigma, #C-34006, St. Louis, MO) and 1% Penicillin/Streptomycin/L-Glutamine (ThermoFisher #10378016, Waltham, MA) at 37° C., 5% CO2, and 95% humidity. Cells are expanded until reaching 70-95% confluency at which point they are subcultured or harvested for assay use. A serial dilution of test compound is dispensed into a 96-well black clear bottom plate in triplicate. Four thousand five hundred cells are added per well in 200 μL complete growth medium in the 96-well plate. Plates are incubated for 67-72 hours at 37° C., 5% CO2, and 95% humidity. At the end of the incubation, 40 μL of a 440 μM solution of resazurin (Sigma, #199303, St. Louis, MO) in PBS is added to each well of the plate and plates are incubated for an additional 6-7 hours at 37° C., 5% CO2, and 95% humidity. Plates are read on a Synergy2 or equivalent reader (Biotek, Winooski VT) using an excitation of 540 nm and an emission of 600 nm. Data is analyzed using Prism software (GraphPad, San Diego, CA) to calculate IC50 values.
In the case of `CNC(=O)c1cc(-c2cnnc(-c3cc(NC(=O)NCCC(C)(C)C)c(F)cc3C)c2)ccn1` [Example 119], the IC50 is 100 to 500 nM.
For the compound `COC(=O)Nc1cc(-c2cc(-c3cc(NC(=O)NC4CC(C)(C)C4)cnc3C)cc(OCCO)n2)ccn1` [Example 156], the IC50 was no more than 100 nM.
On the same count and under the same terms, as for `COC(=O)Nc1cc(-c2cc(-c3cc(NC(=O)NCCC(C)C)c(F)cc3C)cc(OCCO)n2)ccn1` [Example 115], the figure is no more than 100 nM.
Turning to `Cc1ncc(NC(=O)NCCC2(C)CC2)cc1-c1ccnc(-c2ccnc(NC(=O)C3CC3)c2)n1` [Example 107], the IC50 is no more than 100 nM.

Another experiment has as its system Miapaca-2 cells. The experiment in a line: MiaPaca-2 combination cell proliferation assay (1) with cobimetinib, 96-well. Type of experiment: cell-based. Conditions: inhibition of cell proliferation, read-out: MiaPaca-2 Combo (1) IC50. The protocol: MiaPaca-2 Combination Cell proliferation Assay (1)
Miapaca-2 cells (catalog #CRL-1420) are obtained from the American Type Culture Collect (ATCC, Manassas, VA). Briefly, cells were grown in DMEM supplemented with 10% characterized fetal bovine serum (Invitrogen, Carlsbad, CA), 2.5% New Zealand sourced horse serum and 1% Penicillin/Streptomycin/L-Glutamine at 37° C., 5% CO2, and 95% humidity. Cells are expanded until reaching 70-95% confluency at which point they are subcultured or harvested for assay use. A serial dilution of test compound was dispensed into multiple 96-well black clear bottom plates in triplicate. A serial dilution of complete growth medium containing cobimetinib was prepared at twice the final concentration and 100 μL was dispensed across the test compound titration in triplicate. Three thousand cells are added per well in 100 μL complete growth medium in each 96-well plate. Plates are incubated for 67-72 hours at 37° C., 5% CO2, and 95% humidity. At the end of the incubation, 40 μL of a 440 μM solution of resazurin (Sigma, St. Louis, MO) in PBS is added to each well of the plate and plates are incubated for an additional 5-7 hours at 37° C., 5% CO2, and 95% humidity. Plates are read on a Synergy2 or equivalent reader (Biotek, Winooski VT) using an excitation of 540 nm and an emission of 600 nm. Drug synergy was assessed via BLISS analysis in the Combenefit software (Cancer Research UK Cambridge Institute, Cambridge, UK). Data is analyzed using Prism software (GraphPad, San Diego, CA) to calculate IC50 values. Shifts in test compound IC50 values are reported from top-constrained combination therapy curves.
As for `Cc1ncc(NC(=O)NCCC2(C)CC2)cc1-c1cc(OCCO)nc(-c2ccnc(NC(=O)C3CC3)c2)c1` [Example 113], the IC50 is no more than 100 nM.
Turning to `Cc1ccc(NC(=O)Nc2cccc(C(F)(F)F)c2)cc1-c1cc(OCCO)nc(N2CCOCC2)c1` [Example 3, 1-(3-(2-(2-hydroxyethoxy)-6-morpholinopyridin-4-yl)-4-methylphenyl)-3-(3-(trifluoromethyl)phenyl)urea], the IC50 is no more than 100 nM.
On the same count and under the same terms, as for `Cc1cc(F)c(NC(=O)NCCC(C)(C)C)cc1-c1cc(OCCO)nc(C2=CCOCC2)c1` [Example 7], the figure is no more than 100 nM.

The values are drawn from patent US20230357179A1, “RAF KINASE INHIBITORS AND METHODS OF USE THEREOF” (Deciphera Pharmaceuticals, LLC, priority 2021, published 2023).
